Where a name gives a salt, the structure may show the parent alone. Read-outs that look alike come from different tables or passages of the source.
Experiments:
FGFR1 (h) = FGFR1 (h) (Homo sapiens, UniProt P11362); assay: FGFR1 (enzymatic assay), TR-FRET; type: biochemical; details: read-out: FGFR 1 pIC50 (converted)
FGFR2 (h) = FGFR2 (h) (Homo sapiens, UniProt P21802); assay: FGFR2 (enzymatic assay), TR-FRET; type: biochemical; details: enzymatic assay, read-out: FGFR 2 pIC50 (converted)
Procedure, shortened: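 Kinase reaction in 50 mM HEPES pH 7.5 with 6 mM MnCl2, 1 mM DTT, 0.1 mM Na3VO4 and 0.01% Triton-X-100 contained FGFR2 (h) at 150 ng/ml. Biotinylated Flt3 peptide (500 nM) served as substrate with 0.4 μM ATP, compound added in 1% DMSO final.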

FGFR3 (h) = FGFR3 (h) (Homo sapiens, UniProt P22607); assay: FGFR3 (enzymatic assay), TR-FRET; type: biochemical; details: read-out: FGFR 3 pIC50 (converted)
Description: Time-Resolved Fluorescence Resonance Energy Transfer (TR-FRET) signal (ex340 nm.

FGFR4 (h) = FGFR4 (h) (Homo sapiens, UniProt P22455); assay: FGFR4 (enzymatic assay), TR-FRET; type: biochemical; details: FGFR 4 pIC50, enzymatic assay
KDR (h) = KDR (h) (Homo sapiens, UniProt P35968); assay: KDR (VEGFR2) (enzymatic assay), TR-FRET; type: biochemical; details: for IC50: read-out: VEGFR 2 (KDR) pIC50 (converted)
Procedure, shortened: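 Enzyme at 150 ng/ml was incubated 120 min at room temperature with 500 nM Btn-Flt3 peptide and 3 μM ATP in 50 mM HEPES pH 7.5, 6 mM MnCl2, 1 mM DTT, 0.1 mM Na3VO4, 0.01% Triton-X-100, 1% DMSO final. EDTA stop with Eu-anti-P-Tyr/SA-XL-665, 60 min; TR-FRET read in RFU.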

[1] = target: T1, Ba/F3-FGFR1-transfected cells (Homo sapiens, UniProt P11362); assay: Ba/F3-FGFR1 (minus IL3) cellular proliferation assay, Alamar Blue; type: cell-based
T1 construct: BAF3-FGFR1 (MIN IL3) pIC50; other: minus IL3
Procedure, shortened: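 Viability of transfected Ba/F3-FGFR1 cells (20000 per well, RPMI-1640 with 10% FBS and 2 mM L-glutamine) was scored by resazurin-based Alamar Blue reduction over 4 h, after 24 h treatment with compound at 37 °C under 5% CO2.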

[2] = tested on: Ba/F3-FGFR1-transfected cells; assay: Ba/F3-FGFR1 (plus IL3) cellular proliferation assay, counterscreen with 10 ng/ml murine IL3; type: cell-based; details: for BAF3-FGFR1 (PLUS IL3) pIC50: plus IL3 (10 ng/ml murine IL3, counterscreen); for IC50: read-out: BAF3-FGFR1 (PLUS IL3) pIC50 (converted)
Procedure, shortened: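 Ba/F3-FGFR1 cells (20000/well) in RPMI-1640 with 10% FBS exposed to compound for 24 h at 37° C., 5% CO2, then Alamar Blue (resazurin) added for 4 h; fluorescence read at ex 540/em 590 nm. Counterscreen run identically with 10 ng/ml murine IL3.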

[3] = target: T2, Ba/F3-FGFR3-transfected cells (Homo sapiens, UniProt P22607); assay: Ba/F3-FGFR3 (minus IL3) cellular proliferation assay, Alamar Blue; type: cell-based
T2 construct: BAF3-FGFR3 (MIN IL3) pIC50; other: minus IL3
Procedure, shortened: (§1)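 With or without 10 ng/ml murine IL3, FGFR3-dependent Ba/F3 cells were treated 24 h with compound, then viability was gauged by Alamar Blue fluorescence after 4 h (ex 540/em 590 nm).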

[4] = tested on: Ba/F3-FGFR3-transfected cells; assay: Ba/F3-FGFR3 (plus IL3) cellular proliferation assay, counterscreen with 10 ng/ml murine IL3; type: cell-based; details: for BAF3-FGFR3 (PLUS IL3) pIC50: plus IL3 (10 ng/ml murine IL3, counterscreen); for IC50: read-out: BAF3-FGFR3 (PLUS IL3) pIC50 (converted)
Procedure, shortened: as §1

[5] = target: T3, Ba/F3-KDR-transfected cells (Homo sapiens, UniProt P35968); assay: Ba/F3-KDR (minus IL3) cellular proliferation assay, Alamar Blue; type: cell-based
T3 construct: BAF3-KDR (MIN IL3) pIC50; other: minus IL3
Procedure, shortened: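 Ba/F3-KDR cells (20000 per well) in phenol red-free RPMI-1640 with 10% FBS were exposed to compound for 24 hours at 37° C, 5% CO2. Alamar Blue (resazurin) was then added for 4 hours, and fluorescence was read at ex. 540 nm/em. 590 nm.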

[6] = tested on: Ba/F3-KDR-transfected cells; assay: Ba/F3-KDR (plus IL3) cellular proliferation assay, counterscreen with 10 ng/ml murine IL3; type: cell-based; details: for BAF3-KDR (PLUS IL3) pIC50: plus IL3 (10 ng/ml murine IL3, counterscreen); for IC50: read-out: BAF3-KDR (PLUS IL3) pIC50 (converted)
Method: Ba/F3-KDR (Minus IL3 or Plus IL3) (Cellular Proliferation Assay)
In a 384 well plate, 100 n1 of compound dilution in DMSO was sprayed before adding 50 μl cell culture medium (phenol red free RPMI-1640, 10% FBS, 2 mM L-Glutamine and 50 μg/ml Gentamycin) containing 20000 cells per well of Ba/F3-KDR-transfected cells. Cells were put in an incubator at 37° C. and 5% CO2. After 24 hours, 10 μl of Alamar Blue solution (0.5 mM K3Fe(CN)6, 0.5 mM K4Fe(CN)6, 0.15 mM Resazurin and 100 mM Phosphate Buffer) was added to the wells, incubated for 4 hours at 37° C. and 5% CO2 before RFU's (Relative Fluorescence Units) (ex. 540 nm., em. 590 nm.) were measured in a fluororescence plate reader.
As a counterscreen the same experiment was performed in the presence of 10 ng/ml murine IL3.

[7] = target: Ba/F3-FGFR4-transfected cells (Homo sapiens, UniProt P22455); assay: Ba/F3-FGFR4 cellular proliferation assay, Alamar Blue; type: cell-based
Procedure, shortened: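 Compounds in DMSO were dispensed before 20000 Ba/F3-FGFR4-transfected cells per well were added in phenol red free RPMI-1640 with 10% FBS, 2 mM L-Glutamine. After 24 hours at 37° C and 5% CO2, Alamar Blue was added for 4 hours and fluorescence read (ex. 540 nm, em. 590 nm).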

[8] = average values if tested multiple times

Sequence of FGFR4 (h) (P22455 22-802): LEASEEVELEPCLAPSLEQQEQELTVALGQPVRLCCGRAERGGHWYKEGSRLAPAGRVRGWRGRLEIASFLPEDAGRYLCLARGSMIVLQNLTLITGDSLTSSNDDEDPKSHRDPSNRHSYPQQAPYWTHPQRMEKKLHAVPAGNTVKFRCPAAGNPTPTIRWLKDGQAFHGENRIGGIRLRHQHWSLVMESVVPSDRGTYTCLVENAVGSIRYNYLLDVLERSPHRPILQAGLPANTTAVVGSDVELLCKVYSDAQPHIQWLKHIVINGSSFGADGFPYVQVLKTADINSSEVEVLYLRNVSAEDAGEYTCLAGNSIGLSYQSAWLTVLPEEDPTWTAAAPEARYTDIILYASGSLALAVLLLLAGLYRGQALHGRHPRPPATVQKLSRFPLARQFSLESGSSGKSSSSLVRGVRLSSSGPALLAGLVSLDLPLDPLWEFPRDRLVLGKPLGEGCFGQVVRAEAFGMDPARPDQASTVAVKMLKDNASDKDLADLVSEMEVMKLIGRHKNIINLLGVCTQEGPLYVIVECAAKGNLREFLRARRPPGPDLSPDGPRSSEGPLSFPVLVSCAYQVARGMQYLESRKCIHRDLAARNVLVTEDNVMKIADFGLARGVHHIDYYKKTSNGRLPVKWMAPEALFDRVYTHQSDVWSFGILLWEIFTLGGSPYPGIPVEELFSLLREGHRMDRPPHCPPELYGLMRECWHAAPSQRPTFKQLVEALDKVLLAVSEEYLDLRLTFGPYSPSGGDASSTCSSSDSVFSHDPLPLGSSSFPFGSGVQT
Sequence of FGFR2 (h) (P21802 22-821): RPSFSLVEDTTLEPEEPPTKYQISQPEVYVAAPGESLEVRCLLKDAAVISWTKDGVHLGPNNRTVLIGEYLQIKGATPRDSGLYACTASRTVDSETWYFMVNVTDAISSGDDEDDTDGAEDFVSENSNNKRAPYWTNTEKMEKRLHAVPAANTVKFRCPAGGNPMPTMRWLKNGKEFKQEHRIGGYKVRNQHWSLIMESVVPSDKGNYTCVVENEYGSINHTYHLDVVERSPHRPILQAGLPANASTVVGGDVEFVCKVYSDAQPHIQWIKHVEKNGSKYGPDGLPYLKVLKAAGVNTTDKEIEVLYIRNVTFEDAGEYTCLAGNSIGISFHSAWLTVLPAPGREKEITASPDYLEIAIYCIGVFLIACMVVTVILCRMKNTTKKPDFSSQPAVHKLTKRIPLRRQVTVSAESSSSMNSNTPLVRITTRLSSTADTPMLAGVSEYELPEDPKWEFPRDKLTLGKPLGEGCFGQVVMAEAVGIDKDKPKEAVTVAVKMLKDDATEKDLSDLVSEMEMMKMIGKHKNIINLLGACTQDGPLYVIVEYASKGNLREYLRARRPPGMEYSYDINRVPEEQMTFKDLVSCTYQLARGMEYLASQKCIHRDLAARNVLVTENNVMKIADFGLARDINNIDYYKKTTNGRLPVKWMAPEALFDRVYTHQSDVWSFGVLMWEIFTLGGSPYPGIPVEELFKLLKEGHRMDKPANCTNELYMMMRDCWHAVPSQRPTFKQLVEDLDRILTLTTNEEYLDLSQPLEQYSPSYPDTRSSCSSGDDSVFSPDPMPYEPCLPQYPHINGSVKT
Sequence of KDR (h) (P35968 20-1356): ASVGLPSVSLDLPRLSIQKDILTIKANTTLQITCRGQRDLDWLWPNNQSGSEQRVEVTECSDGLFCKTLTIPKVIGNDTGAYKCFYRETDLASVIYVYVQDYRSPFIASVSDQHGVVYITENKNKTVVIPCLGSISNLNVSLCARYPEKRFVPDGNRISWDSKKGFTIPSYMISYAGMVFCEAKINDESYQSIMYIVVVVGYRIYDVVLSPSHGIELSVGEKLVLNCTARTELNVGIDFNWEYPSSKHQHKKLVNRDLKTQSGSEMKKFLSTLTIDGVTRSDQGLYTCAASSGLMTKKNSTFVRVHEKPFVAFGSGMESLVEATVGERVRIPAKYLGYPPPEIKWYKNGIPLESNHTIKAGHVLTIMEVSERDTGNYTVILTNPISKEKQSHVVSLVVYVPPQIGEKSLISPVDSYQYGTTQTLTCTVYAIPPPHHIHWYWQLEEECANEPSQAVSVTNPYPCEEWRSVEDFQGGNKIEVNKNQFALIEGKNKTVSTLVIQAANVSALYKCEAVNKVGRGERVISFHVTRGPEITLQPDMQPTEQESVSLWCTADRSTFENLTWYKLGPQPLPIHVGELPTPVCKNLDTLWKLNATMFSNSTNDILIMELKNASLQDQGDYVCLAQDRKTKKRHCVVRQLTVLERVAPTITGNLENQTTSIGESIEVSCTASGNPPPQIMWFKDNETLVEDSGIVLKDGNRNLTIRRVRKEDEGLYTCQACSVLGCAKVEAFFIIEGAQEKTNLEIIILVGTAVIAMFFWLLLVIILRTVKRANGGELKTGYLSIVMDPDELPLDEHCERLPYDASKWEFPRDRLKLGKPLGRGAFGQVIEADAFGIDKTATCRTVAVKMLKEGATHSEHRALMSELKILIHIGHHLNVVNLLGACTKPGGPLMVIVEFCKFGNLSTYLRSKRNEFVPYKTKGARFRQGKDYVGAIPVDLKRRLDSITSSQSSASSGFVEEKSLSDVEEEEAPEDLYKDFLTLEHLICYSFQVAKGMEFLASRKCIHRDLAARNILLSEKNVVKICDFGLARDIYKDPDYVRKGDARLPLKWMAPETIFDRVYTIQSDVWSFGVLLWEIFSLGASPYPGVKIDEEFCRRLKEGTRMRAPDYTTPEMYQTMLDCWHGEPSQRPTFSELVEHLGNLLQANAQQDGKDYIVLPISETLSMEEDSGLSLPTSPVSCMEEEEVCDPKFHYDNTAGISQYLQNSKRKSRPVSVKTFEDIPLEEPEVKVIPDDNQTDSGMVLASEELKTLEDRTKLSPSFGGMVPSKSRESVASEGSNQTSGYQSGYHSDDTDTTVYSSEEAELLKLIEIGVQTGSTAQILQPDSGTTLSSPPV
Sequence of Ba/F3-FGFR4-transfected cells (P22455 whole entry, change not shown): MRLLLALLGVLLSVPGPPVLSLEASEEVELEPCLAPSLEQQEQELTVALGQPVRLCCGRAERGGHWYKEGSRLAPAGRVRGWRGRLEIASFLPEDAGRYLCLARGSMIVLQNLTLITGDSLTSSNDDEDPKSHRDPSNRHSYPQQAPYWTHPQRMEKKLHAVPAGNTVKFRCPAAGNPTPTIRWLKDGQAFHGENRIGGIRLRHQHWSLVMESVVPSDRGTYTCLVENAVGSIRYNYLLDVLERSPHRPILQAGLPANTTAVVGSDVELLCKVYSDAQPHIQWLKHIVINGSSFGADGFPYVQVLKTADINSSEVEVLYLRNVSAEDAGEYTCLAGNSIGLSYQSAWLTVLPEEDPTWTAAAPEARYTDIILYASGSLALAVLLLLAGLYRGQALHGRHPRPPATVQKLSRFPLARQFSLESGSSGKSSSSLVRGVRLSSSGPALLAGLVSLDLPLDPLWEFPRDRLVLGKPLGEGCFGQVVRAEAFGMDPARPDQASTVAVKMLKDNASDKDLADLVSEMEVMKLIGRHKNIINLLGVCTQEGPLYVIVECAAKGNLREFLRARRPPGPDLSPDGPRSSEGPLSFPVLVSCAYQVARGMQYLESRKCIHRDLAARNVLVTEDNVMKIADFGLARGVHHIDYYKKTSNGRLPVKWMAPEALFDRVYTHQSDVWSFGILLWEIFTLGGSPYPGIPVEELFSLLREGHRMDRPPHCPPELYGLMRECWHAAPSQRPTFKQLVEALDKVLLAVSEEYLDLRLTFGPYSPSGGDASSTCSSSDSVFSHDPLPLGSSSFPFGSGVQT
T3 sequence (P35968 whole entry, change not shown): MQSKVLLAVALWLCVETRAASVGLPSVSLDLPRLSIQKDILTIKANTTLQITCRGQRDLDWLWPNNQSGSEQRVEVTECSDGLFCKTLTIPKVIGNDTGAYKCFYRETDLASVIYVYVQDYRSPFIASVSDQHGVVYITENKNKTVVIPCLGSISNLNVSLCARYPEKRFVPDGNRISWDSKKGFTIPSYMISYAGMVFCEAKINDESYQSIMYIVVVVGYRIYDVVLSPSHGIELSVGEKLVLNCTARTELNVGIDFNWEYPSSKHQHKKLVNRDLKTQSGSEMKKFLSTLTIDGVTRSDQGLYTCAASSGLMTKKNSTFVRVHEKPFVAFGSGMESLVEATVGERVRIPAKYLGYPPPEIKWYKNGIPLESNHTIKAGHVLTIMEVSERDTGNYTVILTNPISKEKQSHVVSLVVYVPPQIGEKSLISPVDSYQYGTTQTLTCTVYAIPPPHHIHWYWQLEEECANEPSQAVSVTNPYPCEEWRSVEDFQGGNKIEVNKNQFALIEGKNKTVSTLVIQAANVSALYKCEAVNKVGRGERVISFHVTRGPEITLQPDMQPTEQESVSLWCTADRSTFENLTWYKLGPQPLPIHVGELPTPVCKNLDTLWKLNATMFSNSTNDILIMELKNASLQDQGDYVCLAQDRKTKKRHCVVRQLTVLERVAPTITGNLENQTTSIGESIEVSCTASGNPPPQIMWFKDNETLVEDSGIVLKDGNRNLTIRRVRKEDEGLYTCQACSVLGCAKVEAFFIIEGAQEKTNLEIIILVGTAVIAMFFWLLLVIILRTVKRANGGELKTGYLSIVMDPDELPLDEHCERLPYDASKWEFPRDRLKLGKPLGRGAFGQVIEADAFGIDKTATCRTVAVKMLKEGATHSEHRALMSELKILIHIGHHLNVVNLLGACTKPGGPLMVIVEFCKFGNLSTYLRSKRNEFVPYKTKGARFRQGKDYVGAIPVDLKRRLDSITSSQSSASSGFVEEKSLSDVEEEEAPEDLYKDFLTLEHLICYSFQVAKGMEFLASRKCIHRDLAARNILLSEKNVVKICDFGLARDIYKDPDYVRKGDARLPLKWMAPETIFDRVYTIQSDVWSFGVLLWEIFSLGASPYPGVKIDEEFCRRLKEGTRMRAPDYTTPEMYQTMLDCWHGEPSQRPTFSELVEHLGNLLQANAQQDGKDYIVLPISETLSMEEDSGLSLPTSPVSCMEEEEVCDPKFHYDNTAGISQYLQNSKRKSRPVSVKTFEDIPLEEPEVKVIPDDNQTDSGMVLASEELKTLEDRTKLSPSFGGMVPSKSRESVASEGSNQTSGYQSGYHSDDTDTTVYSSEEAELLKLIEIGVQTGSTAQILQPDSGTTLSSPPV

SMILES	IC50 (FGFR1 (h); [8])	IC50 (FGFR2 (h); [8])	IC50 (FGFR3 (h); [8])	IC50 (FGFR4 (h); [8])	IC50 (KDR (h); [8])	BAF3-FGFR1 (MIN IL3) pIC50 [1]	BAF3-FGFR1 (PLUS IL3) pIC50 [2]	BAF3-FGFR3 (MIN IL3) pIC50 [3]	BAF3-FGFR3 (PLUS IL3) pIC50 [4]	BAF3-KDR (MIN IL3) pIC50 [5]	BAF3-KDR (PLUS IL3) pIC50 [6]	BAF3-FGFR4 pIC50 [7]	IC50 (FGFR1 (h))	IC50 (FGFR2 (h))	IC50 (FGFR3 (h))	IC50 (FGFR4 (h))	also measured
COc1cc(OC)c(F)c(N(Cc2ncc[nH]2)c2ccc3ncc(-c4cnn(C)c4)nc3n2)c1 [23-lactate salt]	0.501 nM	1.38 nM	0.955 nM	1.1 nM	6.61 nM	8.29	<5	~8.14	<5	6.83	<5	8.13					
COc1ccc(Cl)c(N(CC2CCC(=O)N2)c2ccc3ncc(-c4cnn(C)c4)nc3n2)c1Cl (stereo not drawn) [Compound 94]						5.52	<5	~5.56	<5	<5	<5	<5	97.7 nM	49 nM	81.3 nM	676 nM	VEGFR 2 (KDR) pIC50 (KDR (h)): <6
COc1cc(OC)cc(N(Cc2ncc[nH]2)c2ccc3ncc(-c4cnn(C)c4)nc3n2)c1 [24-fumarate salt]	0.631 nM	1.26 nM	0.851 nM	1.2 nM	11.7 nM	8.46	<5	~8.61	<5	6.38	<5	7.85					
COc1cc(OC)c(F)c(N(CC(N)=O)c2ccc3ncc(-c4cnn(C)c4)nc3n2)c1 [Compound 239]						6.44		6.51		5.27		5.87	5.37 nM	7.94 nM	5.25 nM	35.5 nM	IC50 (KDR (h)): 148 nM; IC50 [2]: > 10000 nM; IC50 [4]: > 10000 nM; IC50 [6]: > 10000 nM
COc1cc(OC)cc(N(CC(O)C(F)(F)F)c2ccc3ncc(-c4cnn(C)c4)nc3n2)c1 (single isomer, unassigned) [Compound 34]	3.55 nM	4.57 nM	1.35 nM	7.08 nM	331 nM	7.18	<5	6.97	<5	<5	<5	6.64					
COc1cc(/N=c2\ccc3ncc(-c4cnn(C)c4)nc3n2CC2CCC(=O)N2)c(F)c(OC)c1 (stereo not drawn) [Compound 53]	1.2 nM	1.62 nM	1.1 nM	3.31 nM	12.3 nM	7.47	<5	7.54	<5	5.99	<5	6.85					
COc1cc(OC)c(F)c(N(Cc2ncc[nH]2)c2ccc3ncc(-c4cnn(C)c4)nc3n2)c1 [23-fumarate salt]	0.479 nM	1.51 nM	~0.891 nM	0.794 nM	5.13 nM	8.85	<5	~8.67	<5	6.67	<5	7.94					
COc1cc(OC)c(F)c(N(CC(O)COC(C)C)c2ccc3ncc(-c4cnn(C)c4)nc3n2)c1F (stereo not drawn) [Compound 62]	4.07 nM	7.76 nM	5.5 nM	3.31 nM	32.4 nM	8.06	<5	8.10	<5	6.21	<5	7.92					
COc1cc(OC)c(F)c(N(Cc2nc3ccccc3[nH]2)c2ccc3ncc(-c4cnn(C)c4)nc3n2)c1 [Compound 80]	1.35 nM	2.63 nM	1.82 nM	1.55 nM	10.2 nM	7.76		8.08		5.79		7.36					IC50 [2]: > 10000 nM; IC50 [4]: > 10000 nM; IC50 [6]: > 10000 nM
COc1cc(/N=c2\ccc3ncc(-c4cnn(C)c4)nc3n2CC2CCC(=O)N2C)c(F)c(OC)c1 (stereo not drawn) [Compound 160]						7.58	<5	7.20	<5	5.89	<5	6.99	1.17 nM	1.82 nM	1.07 nM	~3.39 nM	IC50 (KDR (h)): 7.24 nM
COc1cc(OC)c(F)c(N(CC2CCC(=O)N2C)c2ccc3ncc(-c4cnn(C)c4)nc3n2)c1 (stereo not drawn) [Compound 161]						6.26	<5	6.08	<5	<5	<5	5.78	20 nM	10 nM	6.92 nM	37.2 nM	IC50 (KDR (h)): 126 nM
COc1cc(OC)c(F)c(N(CC2CCC(=O)N2)c2ccc3ncc(-c4cnn(C)c4)nc3n2)c1F (stereo not drawn) [Compound 48]	1.26 nM	3.24 nM	1.7 nM	2.19 nM	24.5 nM	8.00	<5	~7.94	<5	6.03	<5	6.89					

From patent US9309242B2, “Substituted pyrido[2,3-b]pyrazines as FGFR kinase inhibitors” (priority 2011, dated 2016)
